Patent publication US11173147B2, “Prophylactic or therapeutic agent for delirium” (priority 2016, dated 2021)

Assays:
plasma melatonin = assay: Effect on nocturnal plasma melatonin concentration in rats; format: in vivo, rat; settings: Wistar rats, 3 mg/kg orally once per day for 7 days, vs vehicle, FIG. 5
Protocol: Effect of Compound A on Nocturnal Plasma Melatonin Concentration in Rats
9-Week-old male Wistar rats (CLEA Japan Inc.) were used for this study. All rats (n=12) were bred in groups of 2 to 5 animals per cage in a light control room (lights on at 7:00 and 12 hour light/dark cycle) prior to the test and made to get used to it for about two weeks. Food and tap water were freely provided.
A solvent or compound A was orally administered to 11-week-old rats at a dose of 3 mg/kg once per day at 17:00-17:15 for 7 days. After the final treatment, blood samples (500 μL) were successively collected from the tail artery of each rat at 20:00 (ZT (Zeitgeber Time)) 13), 22:00 (ZT15), 0:00 (ZT17), 2:00 (ZT19), 4:00 (ZT21), 6:00 (ZT23) and 8:00 (ZT25) in EDTA-2Na-containing tube (Lot No. MP0831, CAPIJECT (registered trade mark), Terumo Corporation, Japan). The blood samples were centrifuged at 15,000 rpm, 4° C. for 5 min and the supernatant (200 μL) was preserved at -80° C. until they were treated for radioimmunoassay. Melatonin concentration was measured using a kit (Lot No. 2428.10, BUHLMANN Laboratories AG, Switzerland) commercially available from T.N. TECHNOS., Limited, Japan.
The data are shown in average ±SEM (6 rats in each group). The statistical significance between samples and in samples was determined by repeated measurement ANOVA in which P<0.05 was significant.

Clock mutant mouse = assay: Effect on phase delay in Clock mutant mouse (rotating basket exercise); format: in vivo; settings: for % in the initial dark period (rotating basket exercise) / % in the initial dark period (rotating basket exercise), recovery of decrease: vs solvent; for % in the initial dark period (rotating basket exercise): FIG. 3; for exercise starting time: vs average of 7-day preliminary treatment period; for % in the initial dark period (rotating basket exercise), recovery of decrease: FIG. 1
Protocol: Effect on Phase Delay of Compound A in Clock Mutant Mouse
Male Clock mutant mouse (Trans Genic Inc.) and male ICR mouse (CLEA Japan Inc.) were used as a wild-type control in this study. All animals were bred in groups of 4 or 5 animals per cage in a light control room (lights on at 7:00 and 12 hour light/dark cycle) prior to behavioral test. Food and tap water were freely provided.
21-Week-old and 23-week-old mice were used in experiment 1 and experiment 2 (in each experiment, Clock mutant mouse; n=36, ICR mouse; n=12). In both experiments, the animals were placed in a test room and individually bred under 10 hr/14 hr light/dark cycle (lights on at 7:00 and lights off at 17:00) in a cage provided with a rotating basket (diameter 14.5 cm). In addition, 15 Clock mutant mice and 10 ICR mice were prepared as extra animals in the same room in each experiment. Data on the rotating basket exercise were collected every minute and analyzed using Clocklab (registered trade mark) (Actimetrics, Evanston, Ill., USA).
The animals were first acclimated to a new light/dark cycle for about 2 weeks. In the acclimation period, a total number of exercises in 24 hours (total number) for each day, and the percentage of the number of exercise in the light period (7:00 to 17:00) (percentage in the light period) in the total number were measured.
In the preliminary treatment period, the mice were orally administered with a solvent (0.5% methylcellulose solution) at 15:45-16:19 once daily for 2 weeks for acclimation to administration prior to the drug treatment period. […] The solvent or compound A was orally administered to the animals at 15:45 to 16:13 once a day for 7 days.
In the drug treatment period, % in the initial dark period was measured, and the exercise start time was measured using same as an additional index in the Clock mutant mice. Using the aforementioned parameter, the minimum effective dose of compound A in these experiments (experiments 1 and 2) was determined.
The data are shown in average ±SEM. A statistical significance between ICR mouse and Clock mutant mouse was determined by Student's t-test (experiment 1) or Aspin-Welch test (experiment 2) in which P≤0.05 was significant. For analysis of multiple administration of compound A, the statistical significance was determined by one-sided Williams' 20 test (experiments 1 and 2) in which P≤0.025 was significant.

delirium [1] = settings: five patients diagnosed as having delirium; cited from earlier work
delirium [2] = settings: of 10 patients over 65 years of age who developed delirium with heart failure etc.; cited from earlier work

CC(=O)NCC[C@@H]1CCc2ccc3nc(C)oc3c21 [compound A, (S)—N-[2-(2-methyl-7,8-dihydro-6H-indeno[5,4-d][1,3]oxazol-8-yl)ethyl]acetamide]
level of melatonin concentration (plasma) (plasma melatonin): significantly increased | start of plasma melatonin (plasma melatonin): advanced | % in the initial dark period (rotating basket exercise) (Clock mutant mouse; 0.003 mg/kg orally once a day for 7 days): did not have a significant effect | % in the initial dark period (rotating basket exercise) (Clock mutant mouse; 0.03 mg/kg orally once a day for 7 days): did not have a significant effect | exercise starting time (Clock mutant mouse; 0.03 mg/kg repetitive oral administration, FIG. 4): significantly advanced | % in the initial dark period (rotating basket exercise), recovery of decrease (Clock mutant mouse; 0.3 mg/kg orally once a day for 7 days): improvement effect was significant | exercise starting time (Clock mutant mouse; 0.3 mg/kg repetitive oral administration, FIG. 2): significantly advanced | % in the initial dark period (rotating basket exercise), recovery of decrease (Clock mutant mouse; 1 mg/kg orally once a day for 7 days): improvement effect was significant | exercise starting time (Clock mutant mouse; 1 mg/kg repetitive oral administration, FIG. 2): significantly advanced | minimum effective dose (phase retardation) (Clock mutant mouse; oral, once a day for 7 days): 0.03 mg/kg

CCC(=O)NCC[C@@H]1CCc2ccc3c(c21)CCO3 [ramelteon, (S)—N-[2-(1,6,7,8-tetrahydro-2H-indeno[5,4-b]furan-8-yl)ethyl]propionamide]
recovery from delirium symptoms (delirium [1]): recovered from delirium symptoms the next day | patients in whom delirium was improved (delirium [2]): 6 patients
